Biological target: T1, Arg-1 (Mus musculus, UniProt Q61176)
T1 construct: endogenous in cells; host or cells: primary G-MDSCs sorted from the spleen of tumor-bearing or CIA mice, and exosomes from their culture supernatant
T1 sequence (Q61176 1-323): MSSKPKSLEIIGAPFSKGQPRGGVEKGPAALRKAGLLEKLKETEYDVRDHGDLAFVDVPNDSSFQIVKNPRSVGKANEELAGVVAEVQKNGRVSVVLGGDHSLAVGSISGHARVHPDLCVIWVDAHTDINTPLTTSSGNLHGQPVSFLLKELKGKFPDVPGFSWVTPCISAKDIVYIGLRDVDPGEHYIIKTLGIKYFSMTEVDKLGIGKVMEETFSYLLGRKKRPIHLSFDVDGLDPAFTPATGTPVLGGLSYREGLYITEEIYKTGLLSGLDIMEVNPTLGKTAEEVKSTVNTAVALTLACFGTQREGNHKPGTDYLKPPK
Experiment: Arg-1 activity detection (arginase assay kit)
Format: biochemical
Conditions: nor-NOHA (5 mg/ml in DMSO) added to G-MDSC culture; FIG. 7A
Description: (1) The activity detection of Arg-1 in G-MDSC exo and inhibition effect of nor-NOHA on the Arg-1 activity in G-MDSC exo: The sorted G-MDSCs are same to example 1. Inoculate 2×10^6 G-MDSCs per well in 24 well plate, and add 1 ml of RPMI-1640 medium and culture at 37° C., 5% CO2 for 16 h. The culture supernatant is collected and used for preparing G-MDSC exo, then the G-MDSC exo was lysed (the same with example 2), and the G-MDSC exo activity was measured with the arginase assay kit from eBioscience company. 5 mg of nor-NOHA powder was dissolved with 1 ml of DMSO, 5 mg/ml nor-NOHA solution is prepared. Experimental groups were treated as follows:
G-MDSC group: G-MDSCs were cultured, and cells are collected.
(G-MDSC+DMSO) group: G-MDSC is cultured after adding […] of DMSO, and cells were collected.
(G-MDSC+NN) group: G-MDSC is cultured after adding […] of nor-NOHA, and cells were collected.
G-MDSC exo group: G-MDSC is cultured, culture supernatant was collected.
(G-MDSC+DMSO) exo group: G-MDSC is cultured after adding […] of DMSO, culture supernatant was collected.
(G-MDSC+NN) exo group: G-MDSC is cultured after adding […] of nor-NOHA, culture supernatant was collected.

inhibition of Arg-1 activity in G-MDSC exo: could be inhibited
SMILES: N=C(NO)NCC[C@H](N)C(=O)O [NN, nor-NOHA]

From patent US11154571B2, “Exosomes sourced from granulocytic myeloid-derived suppressor cells and application thereof” (Jiangsu University, priority 2015, dated 2021)
